Assay results: patent US20160333419A1, “GENE SIGNATURES ASSOCIATED WITH SENSITIVITY TO MDM2 INHIBITORS” (DAIICHI SANKYO COMPANY, LIMITED, priority 2014, published 2016)
pIC50: −log10 of the molar value.

Columns and labels:
Experiment in all cases: OncoPanel cytotoxicity assay
Type in all cases: cell-based
22Rv1 = details: Homo sapiens, 72 hour incubation
Protocol: (§1) Cells were grown in RPMI 1640, 10% FBS, 2 mM L-alanyl-L-Glutamine, 1 mM Na Pyruvate, or a special medium in a humidified atmosphere of 5% CO2 at 37° C. Cells were seeded into 384-well plates and incubated in a humidified atmosphere of 5% CO2 at 37° C. Test compounds were added 24 hours post cell seeding. At the same time, a time zero, untreated cell plate was generated as a control. After a 72 hour incubation period, cells were fixed and stained with nuclear dye to allow visualization of nuclei.
(§2) Compounds were serially diluted 3.16-fold and assayed over 10 concentrations of inhibitor in a final assay concentration of 0.1% DMSO from the highest test concentration specified in the sample information chapter. Automated fluorescence microscopy was carried out using a GE Healthcare InCell Analyzer 1000, and images were collected with a 4× objective. Twelve bit tiff images were acquired using the InCell Analyzer 1000 3.2 and analyzed with Developer Toolbox 1.6 software.
(§3) Cell proliferation was measured by the signal intensity of the incorporated nuclear dye. The cell proliferation assay output is referred to as the relative cell count. To determine the cell proliferation end point, the cell proliferation data output is transformed to percent of control (POC) using the following formula: […]
(§4) Relative cell count IC50 (IC50) is the test compound's concentration that produces 50% of the cell proliferation inhibitory response or 50% cytotoxicity level. IC50 values were calculated using nonlinear regression to fit data to a sigmoidal 4 point, 4 parameter One-Site dose response model, where: y (fit)=A+[(B−A)/(1+((C/x)̂D))]. Curve-fitting, IC50 calculations and report generation were performed using a custom data reduction engine MathIQ based software (AIM). […] In these cases, the IC50 values were expressed as 40 μM and 10 μM, respectively (Table 2).

769-P = details: Homo sapiens, 72 hour incubation
Protocol: as §1, §2, §3, §4

A-673 = details: Homo sapiens, A673, 72 hour incubation
Protocol: as §1, §2, §3, §4

A172 = details: Homo sapiens, A 172, 72 hour incubation
Protocol: as §1, §2, §3, §4

ARH-77 = details: Homo sapiens, 72 hour incubation
Protocol: as §1, §2, §3, §4

AsPC-1 = details: Homo sapiens, ASPC1, 72 hour incubation
Protocol: as §1, §2, §3, §4

BC-1 = details: Homo sapiens, BC1, 72 hour incubation
Protocol: as §1, §2, §3, §4

BHT-101 = details: Homo sapiens, 72 hour incubation
Protocol: as §1, §2, §3, §4

BM-1604 = details: Homo sapiens, 72 hour incubation
Protocol: as §1, §2, §3, §4

BT474 = details: Homo sapiens, BT-474, 72 hour incubation
Protocol: as §1, §2, §3, §4

BeWo = details: Homo sapiens, 72 hour incubation
Protocol: as §1, §2, §3, §4

CCRFCEM = details: Homo sapiens, CCRF-CEM, 72 hour incubation
Protocol: as §1, §2, §3, §4

CHP-212 = details: Homo sapiens, 72 hour incubation
Protocol: as §1, §2, §3, §4

Capan-1 = details: Homo sapiens, 72 hour incubation
Protocol: as §1, §2, §3, §4

DU145 = details: Homo sapiens, DU-145, 72 hour incubation
Protocol: as §1, §2, §3, §4

Detroit 562 = details: Homo sapiens, 72 hour incubation
Protocol: as §1, §2, §3, §4

EFM-19 = details: Homo sapiens, 72 hour incubation
Protocol: as §1, §2, §3, §4

HPAF-II = details: Homo sapiens, 72 hour incubation
Protocol: as §1, §2, §3, §4

Hs 294T = details: Homo sapiens, 72 hour incubation
Protocol: as §1, §2, §3, §4

Hs 578T = details: Homo sapiens, 72 hour incubation
Protocol: as §1, §2, §3, §4

JEG-3 = details: Homo sapiens, 72 hour incubation
Protocol: as §1, §2, §3, §4

MC-IXC = details: Homo sapiens, 72 hour incubation
Protocol: as §1, §2, §3, §4

NCI-H661 = details: Homo sapiens, 72 hour incubation
Protocol: as §1, §2, §3, §4

NCIH446 = details: Homo sapiens, NCI-H446, 72 hour incubation
Protocol: as §1, §2, §3, §4

OVCAR3 = details: Homo sapiens, OVCAR-3, 72 hour incubation
Protocol: as §1, §2, §3, §4

RPMI-7951 = details: Homo sapiens, 72 hour incubation
Protocol: as §1, §2, §3, §4

SHP-77 = details: Homo sapiens, SHP77, 72 hour incubation
Protocol: as §1, §2, §3, §4

SK-MEL-1 = details: Homo sapiens, 72 hour incubation
Protocol: as §1, §2, §3, §4

SK-N-DZ = details: Homo sapiens, 72 hour incubation
Protocol: as §1, §2, §3, §4

SK-N-FI = details: Homo sapiens, 72 hour incubation
Protocol: as §1, §2, §3, §4

SK-UT-1 = details: Homo sapiens, 72 hour incubation
Protocol: as §1, §2, §3, §4

SNU-16 = details: Homo sapiens, 72 hour incubation
Protocol: as §1, §2, §3, §4

SNU-1 = details: Homo sapiens, SNU1, 72 hour incubation
Protocol: as §1, §2, §3, §4

SNU-423 = details: Homo sapiens, 72 hour incubation
Protocol: as §1, §2, §3, §4

SW684 = details: Homo sapiens, 72 hour incubation
Protocol: as §1, §2, §3, §4

SW948 = details: Homo sapiens, 72 hour incubation
Protocol: as §1, §2, §3, §4

U266B1 = details: Homo sapiens, 72 hour incubation
Protocol: as §1, §2, §3, §4

YAPC = details: Homo sapiens, 72 hour incubation
Protocol: as §1, §2, §3, §4

Q: How did the pIC50 (22Rv1) turn out when CC[C@@H]1CNC2(CC2)CN1C(=O)[C@@H]1C[C@@H](F)CN1C(=O)C1=C(C(C)C)N2C(=N[C@@](C)(c3ccc(Cl)nc3)[C@H]2c2ccc(Cl)c(F)c2)S1 [Compound A, [(5R,6S)-5-(4-Chloro-3-fluorophenyl)-6-(6-chloropyridin-3-yl)-6-methyl-3-(propan-2-yl)-5,6-dihydroimidazo[2,1-b][1,3]thiazol-2-yl][(2S,4R)-2-{[(6R)-6-ethyl-4,7-diazaspiro[2.5]oct-7-yl]carbonyl}-4-fluoropyrrolidin-1-yl]methanone] was run?
A: Its pIC50 is 5.88.

Q: And the pIC50 (769-P)?
A: Its pIC50 is 6.35.

Q: And the pIC50 (A-673)?
A: The pIC50 was less than 4.40.

Q: And the pIC50 (A172)?
A: The pIC50 was 6.10.

Q: What about the pIC50 (ARH-77) of the same molecule?
A: Its pIC50 is less than 4.40.

Q: What about the pIC50 (AsPC-1) of the same molecule?
A: Its pIC50 is less than 4.40.

Q: What about the pIC50 (BC-1) of the same molecule?
A: The pIC50 was 6.33.

Q: And the pIC50 (BHT-101)?
A: The pIC50 was less than 4.40.

Q: What about the pIC50 (BM-1604) of the same molecule?
A: The pIC50 was less than 4.40.

Q: And the pIC50 (BT474)?
A: The pIC50 was less than 4.40.

Q: And the pIC50 (BeWo)?
A: Its pIC50 is 5.83.

Q: And the pIC50 (CCRFCEM)?
A: Its pIC50 is less than 4.40.

Q: What about the pIC50 (CHP-212) of the same molecule?
A: Its pIC50 is 6.71.

Q: What about the pIC50 (Capan-1) of the same molecule?
A: The pIC50 was less than 4.40.

Q: What about the pIC50 (DU145) of the same molecule?
A: The pIC50 was less than 4.40.

Q: And the pIC50 (Detroit 562)?
A: Its pIC50 is less than 4.40.

Q: What about the pIC50 (EFM-19) of the same molecule?
A: Its pIC50 is less than 4.40.

Q: What about the pIC50 (HPAF-II) of the same molecule?
A: The pIC50 was less than 4.40.

Q: What about the pIC50 (Hs 294T) of the same molecule?
A: The pIC50 was 5.91.

Q: What about the pIC50 (Hs 578T) of the same molecule?
A: Its pIC50 is less than 4.40.

Q: What about the pIC50 (JEG-3) of the same molecule?
A: The pIC50 was 5.44.

Q: And the pIC50 (MC-IXC)?
A: Its pIC50 is 4.64.

Q: What about the pIC50 (NCI-H661) of the same molecule?
A: The pIC50 was less than 4.40.

Q: What about the pIC50 (NCIH446) of the same molecule?
A: Its pIC50 is less than 4.40.

Q: What about the pIC50 (OVCAR3) of the same molecule?
A: Its pIC50 is less than 4.40.

Q: And the pIC50 (RPMI-7951)?
A: The pIC50 was less than 4.40.

Q: What about the pIC50 (SHP-77) of the same molecule?
A: The pIC50 was less than 4.40.

Q: What about the pIC50 (SK-MEL-1) of the same molecule?
A: The pIC50 was 6.68.

Q: What about the pIC50 (SK-N-DZ) of the same molecule?
A: Its pIC50 is less than 4.40.

Q: What about the pIC50 (SK-N-FI) of the same molecule?
A: Its pIC50 is less than 4.40.

Q: And the pIC50 (SK-UT-1)?
A: The pIC50 was less than 4.40.

Q: What about the pIC50 (SNU-16) of the same molecule?
A: Its pIC50 is 4.55.

Q: And the pIC50 (SNU-1)?
A: The pIC50 was 6.39.

Q: What about the pIC50 (SNU-423) of the same molecule?
A: The pIC50 was less than 4.40.

Q: And the pIC50 (SW684)?
A: The pIC50 was less than 4.40.

Q: What about the pIC50 (SW948) of the same molecule?
A: Its pIC50 is less than 4.40.

Q: What about the pIC50 (U266B1) of the same molecule?
A: Its pIC50 is less than 4.40.

Q: And the pIC50 (YAPC)?
A: The pIC50 was less than 4.40.

Q: How did the pIC50 (22Rv1) turn out when CC1(C)CCC2(CC1)N[C@@H](C(=O)N[C@@H]1CC[C@@H](C(N)=O)OC1)[C@H](c1ccnc(Cl)c1F)[C@]21C(=O)Nc2cc(Cl)ccc21 [Compound B, (3′R,4′S,5′R)—N-[(3R,6S)-6-carbamoyltetrahydro-2H-pyran-3-yl]-6″-chloro-4′-(2-chloro-3-fluoropyridin-4-yl)-4,4-dimethyl-2″-oxo-1″,2″-dihydrodispiro[cyclohexane-1,2′-pyrrolidine-3′,3″-indole]-5′-carboxamide] was run?
A: Its pIC50 is 6.96.

Q: And the pIC50 (769-P)?
A: The pIC50 was 7.44.

Q: And the pIC50 (A-673)?
A: Its pIC50 is 5.04.

Q: And the pIC50 (A172)?
A: Its pIC50 is 7.16.

Q: What about the pIC50 (ARH-77) of the same molecule?
A: Its pIC50 is 5.12.

Q: And the pIC50 (AsPC-1)?
A: Its pIC50 is less than 5.00.

Q: What about the pIC50 (BC-1) of the same molecule?
A: Its pIC50 is 7.13.

Q: What about the pIC50 (BHT-101) of the same molecule?
A: Its pIC50 is less than 5.00.

Q: What about the pIC50 (BM-1604) of the same molecule?
A: Its pIC50 is less than 5.00.

Q: What about the pIC50 (BT474) of the same molecule?
A: Its pIC50 is less than 5.00.

Q: And the pIC50 (BeWo)?
A: The pIC50 was 6.50.

Q: And the pIC50 (CCRFCEM)?
A: The pIC50 was less than 5.00.

Q: What about the pIC50 (CHP-212) of the same molecule?
A: Its pIC50 is 7.53.

Q: What about the pIC50 (Capan-1) of the same molecule?
A: Its pIC50 is less than 5.00.

Q: What about the pIC50 (DU145) of the same molecule?
A: Its pIC50 is 5.10.

Q: What about the pIC50 (Detroit 562) of the same molecule?
A: The pIC50 was 5.11.

Q: What about the pIC50 (EFM-19) of the same molecule?
A: The pIC50 was less than 5.00.

Q: And the pIC50 (HPAF-II)?
A: The pIC50 was 5.24.

Q: What about the pIC50 (Hs 294T) of the same molecule?
A: The pIC50 was 5.49.

Q: What about the pIC50 (Hs 578T) of the same molecule?
A: The pIC50 was less than 5.00.

Q: And the pIC50 (JEG-3)?
A: The pIC50 was 6.60.

Q: What about the pIC50 (MC-IXC) of the same molecule?
A: Its pIC50 is 5.06.

Q: What about the pIC50 (NCI-H661) of the same molecule?
A: Its pIC50 is 5.18.

Q: What about the pIC50 (NCIH446) of the same molecule?
A: Its pIC50 is less than 5.00.

Q: And the pIC50 (OVCAR3)?
A: Its pIC50 is less than 5.00.

Q: And the pIC50 (RPMI-7951)?
A: Its pIC50 is 5.06.

Q: And the pIC50 (SHP-77)?
A: The pIC50 was 5.08.

Q: What about the pIC50 (SK-MEL-1) of the same molecule?
A: The pIC50 was 7.53.

Q: And the pIC50 (SK-N-DZ)?
A: The pIC50 was less than 5.00.

Q: And the pIC50 (SK-N-FI)?
A: Its pIC50 is less than 5.00.

Q: And the pIC50 (SK-UT-1)?
A: Its pIC50 is less than 5.00.

Q: What about the pIC50 (SNU-16) of the same molecule?
A: Its pIC50 is 5.00.

Q: And the pIC50 (SNU-1)?
A: The pIC50 was 6.87.

Q: What about the pIC50 (SNU-423) of the same molecule?
A: Its pIC50 is less than 5.00.

Q: And the pIC50 (SW684)?
A: The pIC50 was less than 5.00.

Q: And the pIC50 (SW948)?
A: Its pIC50 is less than 5.00.

Q: And the pIC50 (U266B1)?
A: Its pIC50 is less than 5.00.

Q: What about the pIC50 (YAPC) of the same molecule?
A: The pIC50 was less than 5.00.
